{
  "source": "patent US9579328B2",
  "about": "“Prostaglandin and vasoconstrictor pharmaceutical compositions and methods of use” (ALLERGAN, INC., priority 2012, dated 2017)",
  "key": {"[1]": {"test_system": "palpebral conjunctiva of Dutch-Belted (pigmented) rabbits", "parameters": "key: N = Tissues within normal histological limits", "settings": "left eye, n = 20, cited from earlier work"}, "[2]": {"test_system": "eyes of conscious Beagle dogs", "settings": "bimatoprost 0.1%, latanoprost 0.005%, cited from earlier work"}, "[3]": {"test_system": "palpebral conjunctiva of New Zealand White (albino) rabbits", "settings": "left eye, n = 16, cited from earlier work"}, "conjunctiva of patients": {"test_system": "conjunctiva of patients", "experiment": "Phase 3 clinical studies, bimatoprost 0.03%/timolol 0.5% Combination versus bimatoprost monotherapy: conjunctival hyperaemia", "type": "in vivo, human", "description": "Approximately 60% of patients being treated for glaucoma require two or more agents (adjuvant therapy) to control the intraocular pressure. For this reason, combination therapies, in which two pharmaceutically active agents are combined in the same formulation, have been developed to decrease complexity in the treatment regimen, improve patient compliance, and to minimize the exposure to excipients with possible toxicity such as benzalkonium chloride. Currently, the most commonly prescribed adjuvant therapy includes a beta-blocker and a prostaglandin analogue. For this reason, Allergan has formulated bimatoprost 0.03% together with timolol 0.5% (Combination)."}, "[4]": {"test_system": "conjunctiva of patients with bilateral open-angle glaucoma or ocular hypertension", "settings": "bimatoprost 0.03% once daily, cited from earlier work"}, "[5]": {"settings": "Bimatoprost 0.03% b.i.d. 6 months"}, "[6]": {"settings": "Bimatoprost 0.03% q.d. 6 months"}, "[7]": {"settings": "Bimatoprost 0.1% b.i.d. 6 months"}, "[8]": {"settings": "Bimatoprost 0.001% q.i.d. one month"}, "[9]": {"settings": "Bimatoprost 0.01% q.i.d. one month"}, "[10]": {"settings": "Bimatoprost 0.1% q.i.d. one month"}, "[11]": {"settings": "Pooled 192024-018T & 021T (3 months), first line"}, "[12]": {"settings": "Pooled 192024-018T & 021T (3 months), second line"}},
  "note": "Like-named read-outs stand apart in the source and are kept apart here.",
  "data": [
    {"smiles": "CCNC(=O)CCC/C=C\\C[C@@H]1[C@@H](/C=C/[C@@H](O)CCc2ccccc2)[C@H](O)C[C@@H]1O", "note": "[Bimatoprost, bimatoprost]", "values": [
      {"measurement": "Mononuclear cell infiltration in palpebral conjunctiva, Lower Eyelid", "setting": "[1]; [5]", "result": "N"},
      {"measurement": "Mononuclear cell infiltration in palpebral conjunctiva, Upper Eyelid", "setting": "[1]; [5]", "result": "N"},
      {"measurement": "Mononuclear cell infiltration in palpebral conjunctiva, Lower Eyelid", "setting": "[1]; [6]", "result": "N"},
      {"measurement": "Mononuclear cell infiltration in palpebral conjunctiva, Upper Eyelid", "setting": "[1]; [6]", "result": "N"},
      {"measurement": "Mononuclear cell infiltration in palpebral conjunctiva, Lower Eyelid", "setting": "[1]; [7]", "result": "N"},
      {"measurement": "Mononuclear cell infiltration in palpebral conjunctiva, Upper Eyelid", "setting": "[1]; [7]", "result": "N"},
      {"measurement": "ocular surface hyperemic response (severity)", "setting": "[2]; D-NAME treated control eyes, scale 0=none, 0.5=trace, 1=mild, 2=moderate, 3=severe", "result": "trace to mild"},
      {"measurement": "effect of L-NAME on elicited ocular surface hyperemia", "setting": "[2]; L-NAME 1% treated eyes, PGE2 0.01%, 0-6 h", "result": "blocked"},
      {"measurement": "Incidence of minimal-to-mild mononuclear cell infiltration in palpebral conjunctiva, Lower Eyelid", "setting": "[3]; [8]", "result": "12 number of animals"},
      {"measurement": "Incidence of minimal-to-mild mononuclear cell infiltration in palpebral conjunctiva, Upper Eyelid", "setting": "[3]; [8]", "result": "4 number of animals"},
      {"measurement": "Incidence of minimal-to-mild mononuclear cell infiltration in palpebral conjunctiva, Lower Eyelid", "setting": "[3]; [9]", "result": "13 number of animals"},
      {"measurement": "Incidence of minimal-to-mild mononuclear cell infiltration in palpebral conjunctiva, Upper Eyelid", "setting": "[3]; [9]", "result": "6 number of animals"},
      {"measurement": "Incidence of minimal-to-mild mononuclear cell infiltration in palpebral conjunctiva, Lower Eyelid", "setting": "[3]; [10]", "result": "14 number of animals"},
      {"measurement": "Incidence of minimal-to-mild mononuclear cell infiltration in palpebral conjunctiva, Upper Eyelid", "setting": "[3]; [10]", "result": "8 number of animals"},
      {"measurement": "Incidence of Conjunctival hyperaemia Detected on Biomicroscopy, Biomicro ≧ +1", "setting": "conjunctiva of patients; 192024-026T (3 weeks)", "result": 18.9, "unit": "%"},
      {"measurement": "Incidence of Conjunctival hyperaemia Reported as a Treatment-Related AE (Rx-rel AE)", "setting": "conjunctiva of patients; 192024-026T (3 weeks)", "result": 27.8, "unit": "%"},
      {"measurement": "Incidence of Conjunctival hyperaemia Detected on Biomicroscopy, Biomicro ≧ +1", "setting": "conjunctiva of patients; 192024-504T (3 months)", "result": 21.1, "unit": "%"},
      {"measurement": "Incidence of Conjunctival hyperaemia Reported as a Treatment-Related AE (Rx-rel AE)", "setting": "conjunctiva of patients; 192024-504T (3 months)", "result": 29.9, "unit": "%"},
      {"measurement": "Incidence of Conjunctival hyperaemia Detected on Biomicroscopy, Biomicro ≧ +1", "setting": "conjunctiva of patients; [11]", "result": 30.9, "unit": "%"},
      {"measurement": "Incidence of Conjunctival hyperaemia Reported as a Treatment-Related AE (Rx-rel AE)", "setting": "conjunctiva of patients; [11]", "result": 38.5, "unit": "%"},
      {"measurement": "Incidence of Conjunctival hyperaemia Detected on Biomicroscopy, Biomicro ≧ +1", "setting": "conjunctiva of patients; [12]", "result": 41.5, "unit": "%"},
      {"measurement": "Incidence of Conjunctival hyperaemia Reported as a Treatment-Related AE (Rx-rel AE)", "setting": "conjunctiva of patients; [12]", "result": 43.4, "unit": "%"},
      {"measurement": "time at which frequency and severity of hyperemia peaked after the first instillation", "setting": "[4]; 39 patients, slit-lamp biomicroscopy", "result": "approximately 1 day"},
      {"measurement": "hyperemia returning to near baseline levels", "setting": "[4]; month-long study", "result": "≤ 28", "unit": "days"},
      {"measurement": "clinical significance of the hyperemia", "setting": "[4]", "result": "not clinically significant"}
    ]}
  ]
}
